Patent US20200325177A1, “METHODS OF MAKING STREPTOGRAMIN COMPOSITIONS AND THE USE THEREOF” (THE REGENTS OF THE UNIVERSITY OF CALIFORNIA, priority 2017, published 2020)
Converted amounts (≈) assume the structure as drawn. Read-outs that look alike come from different tables or passages of the source.

Key:
Format in all cases: cell-based
[1] = system: S. aureus Linezolid-resistant; cfr; assay: MIC, Gram-positive bacteria: S. aureus Linezolid-resistant; cfr; settings: Staphylococcus aureus, column 9, read-out: Minimal Inhibitory Concentration (MIC) S. aureus Linezolid-resistant
E. faecalis = assay: MIC, Gram-positive bacteria: E. faecalis; settings: Enterococcus faecalis, column 1, read-out: Minimal Inhibitory Concentration (MIC) E. faecalis
S. pneumoniae = assay: MIC, Gram-positive bacteria: S. pneumoniae; settings: Streptococcus pneumoniae, column 10, read-out: Minimal Inhibitory Concentration (MIC) S. pneumoniae
Gram-Negative Organisms = assay: microbe, parasite or virus in culture
[2] = system: K. pneumoniae multidrug-resistant; assay: MIC, Gram-negative bacteria: K. pneumoniae multidrug-resistant; settings: Klebsiella pneumoniae, read-out: Minimal Inhibitory Concentration (MIC) K. pneumoniae multidrug-resistant
E. faecium VRE; vanA = assay: MIC, Gram-positive bacteria: E. faecium VRE; vanA; settings: Enterococcus faecium, column 3, read-out: Minimal Inhibitory Concentration (MIC) E. faecium VRE
S. aureus = assay: MIC, Gram-positive bacteria: S. aureus (strains not named); settings: Staphylococcus aureus, read-out: Minimal Inhibitory Concentration (MIC) S. aureus
P. aeruginosa ATCC 27853 = assay: MIC, Gram-negative bacteria: P. aeruginosa ATCC 27853; settings: Pseudomonas aeruginosa, ATCC27853, read-out: Minimal Inhibitory Concentration (MIC) P. aeruginosa ATCC 27853
[3] = system: P. aeruginosa MDR clinical isolate; assay: MIC, Gram-negative bacteria: P. aeruginosa MDR clinical isolate; settings: Pseudomonas aeruginosa, read-out: Minimal Inhibitory Concentration (MIC) P. aeruginosa MDR clinical isolate
H. influenzae ATCC 49247 = assay: MIC, Gram-negative bacteria: H. influenzae ATCC 49247; settings: Haemophilus influenzae, ATCC49247, read-out: Minimal Inhibitory Concentration (MIC) H. influenzae ATCC 49247
[4] = system: S. aureus Vat A streptogramin; assay: MIC, Gram-positive bacteria: S. aureus Vat A streptogramin; settings: Staphylococcus aureus; Gram-positive; column 5; read-out: Minimal Inhibitory Concentration (MIC) S. aureus Vat A streptogramin
E. faecium ATCC 35667 = assay: MIC, Gram-positive bacteria: E. faecium ATCC 35667; settings: Enterococcus faecium, ATCC35667, column 2, read-out: Minimal Inhibitory Concentration (MIC) E. faecium ATCC 35667
[5] = Acinetobacter baumannii, ATCC19606, read-out: Minimal Inhibitory Concentration (MIC), A. baumannii ATCC 19606
[6] = Escherichia coli, ATCC25922, read-out: Minimal Inhibitory Concentration (MIC), E. coli ATCC 25922
[7] = Escherichia coli, read-out: Minimal Inhibitory Concentration (MIC), E. coli BAS2006, OMP C, OMP F
[8] = Escherichia coli, read-out: Minimal Inhibitory Concentration (MIC), E. coli olC efflux defective
[9] = Escherichia coli, read-out: Minimal Inhibitory Concentration (MIC), E. coli permeability mutant BAS1314, IMP4213ZAB::TN10
[10] = Escherichia coli, read-out: Minimal Inhibitory Concentration (MIC), E. coli ΔompC768, KanR insert
[11] = Klebsiella pneumoniae, ATCC43816, read-out: Minimal Inhibitory Concentration (MIC), K. pneumoniae ATCC 43816
[12] = first unnamed S. aureus column (c4)
[13] = fourth unnamed S. aureus column (c8)
[14] = second unnamed S. aureus column (c6)
[15] = third unnamed S. aureus column (c7)

Compound | MIC [1] [µg/mL] | MIC (E. faecalis) [µg/mL] | MIC (S. pneumoniae) [µg/mL] | MIC (Gram-Negative Organisms; [5]) [µg/mL] | MIC (Gram-Negative Organisms; [6]) [µg/mL] | MIC (Gram-Negative Organisms; [7]) [µg/mL] | MIC (Gram-Negative Organisms; [8]) [µg/mL] | MIC (Gram-Negative Organisms; [9]) [µg/mL] | MIC (Gram-Negative Organisms; [11]) [µg/mL] | MIC [2] [µg/mL] | MIC (E. faecium VRE; vanA) [µg/mL] | MIC (S. aureus; [12]) [µg/mL] | MIC (S. aureus; [13]) [µg/mL] | MIC (S. aureus; [14]) [µg/mL] | MIC (S. aureus; [15]) [µg/mL] | MIC (P. aeruginosa ATCC 27853) [µg/mL] | MIC [3] [µg/mL] | MIC (H. influenzae ATCC 49247) [µg/mL] | MIC [4] [µg/mL] | MIC (E. faecium ATCC 35667) [µg/mL] | also measured
CC1=C\[C@@H](O)CC(=O)Cc2nc(co2)C(=O)N2CCC[C@@H]2C(=O)O[C@H]([C@H](C)COC(=O)Nc2cc(C)on2)[C@H](C)/C=C/C(=O)NC\C=C\1 [SA0110225] | > 64 | > 64 | 32 (≈ 47.9 µM) | > 64 | > 64 | > 64 | 4 (≈ 5.99 µM) | 8 (≈ 12 µM) | > 64 | > 64 | 64 (≈ 95.8 µM) | > 64 | 64 (≈ 95.8 µM) | 64 (≈ 95.8 µM) | > 64 | > 64 | > 64 | 16 (≈ 24 µM) | > 64 | 32 (≈ 47.9 µM) | MIC (Gram-Negative Organisms; [10]): > 64 µg/mL
CC1=C\[C@@H](O)CC(=O)Cc2nc(co2)C(=O)N2CCC[C@@H]2C(=O)O[C@H]([C@@H](C)COC(=O)Nc2ccc(C)cc2)[C@H](C)/C=C/C(=O)NC\C=C\1 [SA0110037] | > 64 | > 64 | 16 (≈ 23.6 µM) | > 64 | > 64 | 16 (≈ 23.6 µM) | 4 (≈ 5.91 µM) | 8 (≈ 11.8 µM) | > 64 | > 64 | 64 (≈ 94.6 µM) | 32 (≈ 47.3 µM) | 16 (≈ 23.6 µM) | 32 (≈ 47.3 µM) | 64 (≈ 94.6 µM) | > 64 | > 64 | > 64 | > 64 | 16 (≈ 23.6 µM) | –
CC1=C\[C@@H](O)C[C@@H](F)Cc2nc(co2)C(=O)N2CCC[C@@H]2C(=O)O[C@H](C(C)C)[C@H](C)/C=C/C(=O)NC\C=C\1 [flopristin, reference compound] | > 64 | > 64 | 2 (≈ 3.76 µM) | > 64 | 32 (≈ 60.2 µM) | 0.25 (≈ 0.47 µM) | 1 (≈ 1.88 µM) | < 0.06 | > 64 | > 64 | 2 (≈ 3.76 µM) | 0.5 (≈ 0.941 µM) | 0.5 (≈ 0.941 µM) | 0.5 (≈ 0.941 µM) | 1 (≈ 1.88 µM) | > 64 | > 64 | 0.25 (≈ 0.47 µM) | 8 (≈ 15 µM) | 0.5 (≈ 0.941 µM) | MIC (Gram-Negative Organisms; [10]): 64 µg/mL (≈ 120 µM)
CC1=C\[C@@H](O)CC(=O)Cc2nc(co2)C(=O)N2CCC[C@@H]2C(=O)O[C@H](C(C)C)[C@H](C)/C=C/C(=O)NC\C=C\1 [virginiamycin M2, Virginiamycin M2, reference compound] | > 64 | > 64 | 8 (≈ 15.2 µM) | > 64 | > 64 | 2 (≈ 3.79 µM) | 2 (≈ 3.79 µM) | 2 (≈ 3.79 µM) | > 64 | > 64 | 8 (≈ 15.2 µM) | 16 (≈ 30.3 µM) | 8 (≈ 15.2 µM) | 16 (≈ 30.3 µM) | 32 (≈ 60.6 µM) | > 64 | > 64 | 16 (≈ 30.3 µM) | > 64 | 4 (≈ 7.58 µM) | –
CC1=C\[C@@H](O)CC(=O)Cc2nc(co2)C(=O)N2CCC[C@@H]2C(=O)O[C@H]([C@H](C)COC(=O)Nc2ccc(C(F)(F)F)cc2)[C@H](C)/C=C/C(=O)NC\C=C\1 [SA0110193] | > 64 | > 64 | > 64 | > 64 | > 64 | > 64 | 8 (≈ 10.9 µM) | 4 (≈ 5.47 µM) | > 64 | > 64 | > 64 | 8 (≈ 10.9 µM) | 8 (≈ 10.9 µM) | 8 (≈ 10.9 µM) | 16 (≈ 21.9 µM) | > 64 | > 64 | > 64 | 16 (≈ 21.9 µM) | 8 (≈ 10.9 µM) | MIC (Gram-Negative Organisms; [10]): > 64 µg/mL
